From patent publication US7964607B2, “Pyrazolo[3,4-d]pyrimidine compounds” (Pfizer Inc., priority 2007, dated 2011)

Each molecule was assayed against T1, human recombinant PDE9 enzyme (Homo sapiens, UniProt O76083) (assay: Phosphodiesterase 9 (PDE9) inhibitory activity, Scintillation Proximity (SPA) assay). Details: not given.
T1 construct: made in house; host or cells: SF-9 insect cells
T1 sequence (O76083 whole entry): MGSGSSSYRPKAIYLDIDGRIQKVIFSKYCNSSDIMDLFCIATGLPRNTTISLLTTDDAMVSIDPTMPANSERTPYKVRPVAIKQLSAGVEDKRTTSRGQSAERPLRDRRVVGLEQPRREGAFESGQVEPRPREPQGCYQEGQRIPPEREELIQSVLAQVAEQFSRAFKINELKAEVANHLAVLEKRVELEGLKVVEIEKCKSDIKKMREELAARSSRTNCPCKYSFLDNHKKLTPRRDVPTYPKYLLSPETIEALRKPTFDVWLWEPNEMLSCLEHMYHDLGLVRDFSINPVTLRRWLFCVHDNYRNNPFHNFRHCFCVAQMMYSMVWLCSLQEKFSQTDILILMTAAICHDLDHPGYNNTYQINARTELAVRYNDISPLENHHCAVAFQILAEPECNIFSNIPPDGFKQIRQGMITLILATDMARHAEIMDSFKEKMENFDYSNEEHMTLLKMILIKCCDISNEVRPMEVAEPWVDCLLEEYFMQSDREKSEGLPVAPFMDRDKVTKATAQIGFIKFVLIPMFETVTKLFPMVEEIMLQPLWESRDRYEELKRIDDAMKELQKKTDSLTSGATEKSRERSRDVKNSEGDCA
Assay type: biochemical
Description: Phosphodiesterase 9 (PDE9) Inhibitory Activity The PDE9 assay was performed using the Phosphodiesterase Scintillation Proximity (SPA) assay (GE Healthcare Life Sciences). […] The human recombinant PDE9 enzyme was generated in SF-9 cells, the cell pellets were sonicated in buffer (20 mM TRIS, 2 mM benzamidine, 1 mM EDTA, 250 mM sucrose, 100 μM PMSF, pH 7.5 with HCl), centrifuged at 40,000×g for 20 min at 4° C. The supernatants were stored at −80° C. […] Test compounds were dissolved in DMSO, diluted in DI H2O and serially diluted in 20% DMSO/80% H2O, for a final concentration of 2% DMSO. For the assay the PDE9 was diluted with assay buffer such that 20% or less of the substrate was hydrolyzed to 5′GMP. Each assay well contained 10 μl of test compound or solvent, 40 μl of [^3H]CGMP and 50 μl of enzyme, background was determined by a high concentration of a PDE inhibitor. The assay was initiated with the addition of the enzyme and carried out at room temperature for 30 min. […] The plates were sealed, vortexed, allowed to set for >300 min, then counted in a Wallac TriLux MicroBeta LSC.
C[C@@H]1CN(Cc2ccccc2)C[C@H]1c1nc2c(cnn2C2CCOCC2)c(=O)[nH]1 (racemic) [Example 60, 6-[(3,4-trans)-1-benzyl-4-methylpyrrolidin-3-yl]-1-(tetrahydro-2H-pyran-4-yl)-1,5-dihydro-4H-pyrazolo[3,4-d]pyrimidin-4-one] showed an IC50 of 44.8 nM.

Same assay, conditions: human recombinant PDE9 from SF-9 cells; 50 nM [3H]cGMP; room temperature, 30 min; Examples 3-114; read-out: G5678A (U): IC50
Molecule O=c1[nH]c([C@@H]2CN(Cc3ccccc3)C[C@H]2C(F)(F)F)nc2c1cnn2C1CCCC1 (racemic) [Example 35, 6-[(3,4-trans)-1-benzyl-4-(trifluoromethyl)pyrrolidin-3-yl]-1-cyclopentyl-1,5-dihydro-4H-pyrazolo[3,4-d]pyrimidin-4-one] has an IC50 of 53.8 nM.
Work on CC[C@@H]1CN(Cc2ccccc2)C[C@H]1c1nc2c(cnn2C(C)C)c(=O)[nH]1 (racemic) [Example 39, 6-[(3,4-trans)-1-benzyl-4-ethylpyrrolidin-3-yl]-1-isopropyl-1,5-dihydro-4H-pyrazolo[3,4-d]pyrimidin-4-one] yielded an IC50 of 58.1 nM.
Work on CC[C@@H]1CN(Cc2cnc3ccccc3c2)C[C@H]1c1nc2c(cnn2C(C)C)c(=O)[nH]1 (racemic) [Example 44, 6-[(3,4-trans)-4-ethyl-1-(quinolin-3-ylmethyl)pyrrolidin-3-yl]-1-isopropyl-1,5-dihydro-4-H-pyrazolo[3,4-d]pyrimidin-4-one] yielded an IC50 of 10.9 nM.
CC[C@@H]1CN(Cc2ccc(OC)nc2)C[C@H]1c1nc2c(cnn2C(C)C)c(=O)[nH]1 (racemic) [Example 45, 6-{(3,4-trans)-4-ethyl-1-[(6-methoxypyridin-3-yl)methyl]pyrrolidin-3-yl}-1-isopropyl-1,5-dihydro-4H-pyrazolo[3,4-d]pyrimidin-4-one] showed an IC50 of 38.7 nM.
CC[C@@H]1CN(Cc2ccc3nccnc3c2)C[C@H]1c1nc2c(cnn2C(C)C)c(=O)[nH]1 (racemic) [Example 46, 6-[(3,4-trans)-4-ethyl-1-(quinoxalin-6-ylmethyl)pyrrolidin-3-yl]-1-isopropyl-1,5-dihydro-4H-pyrazolo[3,4-d]pyrimidin-4-one] showed an IC50 of 8.53 nM.
For O=c1[nH]c([C@@H]2CN(Cc3ccc4nccnc4c3)C[C@H]2C(F)(F)F)nc2c1cnn2C1CCCC1 (racemic) [Example 52, 1-cyclopentyl-6-[(3,4-trans)-1-(quinoxalin-6-ylmethyl)-4-(trifluoromethyl)pyrrolidin-3-yl]-1,5-dihydro-4H-pyrazolo[3,4-d]pyrimidin-4-one], the IC50 was 26 nM.
Work on Cc1cnc(CN2C[C@@H](c3nc4c(cnn4C4CCCC4)c(=O)[nH]3)[C@H](C3CC3)C2)cn1 (racemic) [Example 55, 1-cyclopentyl-6-{(3,4-trans)-4-cyclopropyl-1-[(5-methylpyrazin-2-yl)methyl]pyrrolidin-3-yl}-1,5-dihydro-4H-pyrazolo[3,4-d]pyrimidin-4-one] yielded an IC50 of 6.55 nM.
Molecule O=c1[nH]c([C@@H]2CN(Cc3ccc4nccnc4c3)C[C@H]2C2CC2)nc2c1cnn2C1CCCC1 (racemic) [Example 56, 1-cyclopentyl-6-[(3,4-trans)-4-cyclopropyl-1-(quinoxalin-6-ylmethyl)pyrrolidin-3-yl]-1,5-dihydro-4H-pyrazolo[3,4-d]pyrimidin-4-one] has an IC50 of 4.81 nM.
CN1C[C@@H](c2nc3c(cnn3C3CCCC3)c(=O)[nH]2)[C@H](C2CC2)C1 (racemic) [Example 57, 1-cyclopentyl-6-[(3,4-trans)-4-cyclopropyl-1-methylpyrrolidin-3-yl]-1,5-dihydro-4H-pyrazolo[3,4-d]pyrimidin-4-one] was tested, and the IC50 was 122 nM.
Work on CCn1ncc2c(=O)[nH]c([C@@H]3CN(Cc4ccccc4)C[C@H]3C)nc21 (racemic) [Example 58, 6-[(3,4-trans)-1-benzyl-4-methylpyrrolidin-3-yl]-1-ethyl-1,5-dihydro-4H-pyrazolo[3,4-d]pyrimidin-4-one] yielded an IC50 of 334 nM.
O=c1[nH]c([C@@H]2CN(Cc3ccccc3)C[C@H]2CC(F)(F)F)nc2c1cnn2C1CCCC1 (racemic) [Example 62, 6-[(3,4-trans)-1-benzyl-4-(2,2,2-trifluoroethyl)pyrrolidin-3-yl]-1-cyclopentyl-1,5-dihydro-4H-pyrazolo[3,4-d]pyrimidin-4-one] showed an IC50 of 520 nM.
C[C@@H]1CN(Cc2ccccc2)C[C@H]1c1nc2c(cnn2C2CCC(F)(F)CC2)c(=O)[nH]1 (racemic) [Example 63, 6-[(3,4-trans)-1-benzyl-4-methylpyrrolidin-3-yl]-1-(4,4-difluorocyclohexyl)-1,5-dihydro-4H-pyrazolo[3,4-d]pyrimidin-4-one] was tested, and the IC50 was 123 nM.
COc1ccc2nccc(CN3C[C@@H](C)[C@H](c4nc5c(cnn5C(C)C)c(=O)[nH]4)C3)c2n1 (racemic) [Example 69, 1-isopropyl-6-{(3,4-trans)-1-[(6-methoxy-1,5-naphthyridin-4-yl)methyl]-4-methylpyrrolidin-3-yl}-1,5-dihydro-4H-pyrazolo[3,4-d]pyrimidin-4-one] showed an IC50 of 30.7 nM.
Molecule CC(C)n1ncc2c(=O)[nH]c([C@@H]3CN(Cc4ccc5cccc(F)c5n4)C[C@H]3C)nc21 (racemic) [Example 70, 6-{(3,4-trans)-1-[(8-fluoroquinolin-2-yl)methyl]-4-methylpyrrolidin-3-yl}-1-isopropyl-1,5-dihydro-4H-pyrazolo[3,4-d]pyrimidin-4-one] has an IC50 of 10.2 nM.
COc1ccc2nccc(CN3C[C@@H](C)[C@H](c4nc5c(cnn5C(C)C)c(=O)[nH]4)C3)c2c1 (racemic) [Example 71, 1-isopropyl-6-{(y)-1-[(6-methoxyquinolin-4-yl)methyl]-4-methylpyrrolidin-3-yl}-1,5-dihydro-4H-pyrazolo[3,4-d]pyrimidin-4-one] showed an IC50 of 16.1 nM.
C[C@@H]1CN(Cc2ccccc2)C[C@H]1c1nc2c(cnn2C2CCC2)c(=O)[nH]1 (racemic) [Example 72, 6-[(3,4-trans)-1-benzyl-4-methylpyrrolidin-3-yl]-1-cyclobutyl-1,5-dihydro-4H-pyrazolo[3,4-d]pyrimidin-4-one] gave an IC50 of 40.1 nM.
For CC[C@@H]1CN(Cc2cnc(C)nc2)C[C@H]1c1nc2c(cnn2C2CCOCC2)c(=O)[nH]1 (racemic) [Example 74], the IC50 was 6.14 nM.
With Cc1ncc(CN2C[C@@H](C)[C@H](c3nc4c(cnn4C4CCC4)c(=O)[nH]3)C2)cn1 (racemic) [Example 83, 1-cyclobutyl-6-{(3,4-trans)-4-methyl-1-[(2-methylpyrimidin-5-yl)methyl]pyrrolidin-3-yl}-1,5-dihydro-4H-pyrazolo[3,4-d]pyrimidin-4-one] the IC50 was 24.5 nM.

Same assay, conditions: human recombinant PDE9 from SF-9 cells; 50 nM [3H]cGMP; room temperature, 30 min; additional compounds Ex. 115-228; read-out: G5678A (U):IC50
With C[C@@H]1CN(Cc2cccc(-n3cccn3)c2)C[C@H]1c1nc2c(cnn2C2CCCC2)c(=O)[nH]1 (racemic) [Example 115, 1-cyclopentyl-6-{(3,4-trans)-4-methyl-1-[3-(1H-pyrazol-1-yl)benzyl]pyrrolidin-3-yl}-1,5-dihydro-4H-pyrazolo[3,4-d]pyrimidin-4-one] the IC50 was 40.4 nM.
Work on Cc1cc(CN2C[C@@H](C)[C@H](c3nc4c(cnn4C4CCCC4)c(=O)[nH]3)C2)ccn1 (racemic) [Example 116, 1-cyclopentyl-6-{(3,4-trans)-4-methyl-1-[(2-methylpyridin-4-yl)methyl]pyrrolidin-3-yl}-1,5-dihydro-4H-pyrazolo[3,4-d]pyrimidin-4-one] yielded an IC50 of 34 nM.
C[C@@H]1CN(Cc2c(F)cccc2Cl)C[C@H]1c1nc2c(cnn2C2CCCC2)c(=O)[nH]1 (racemic) [Example 117, 6-[(3,4-trans)-1-(2-chloro-6-fluorobenzyl)-4-methylpyrrolidin-3-yl]-1-cyclopentyl-1,5-dihydro-4H-pyrazolo[3,4-d]pyrimidin-4-one] was tested, and the IC50 was 126 nM.
